Measured values published in paper PMC6072853 (Frontiers in Pharmacology, 2018).

Legend:
Assay type in all cases: cell-based, human
MCF-7 = experiment: MTT antiproliferative assay, MCF-7; conditions: 72 h; for inhibition at 10 µM / inhibition at 30 µM: Homo sapiens, MCF7, read-out: Growth inhibition (%) ± SEM
From the text: (§1) Gynecological cancer cell lines, including ovarian (A2780), cervical (HeLa), and breast cancer cell lines (MCF7, T47D, MDA-MB-231, and MDA-MB-361) were purchased from the European Collection of Authenticated Cell Cultures (ECACC, Salisbury, United Kingdom). Additional cervical cell lines (SiHa and C33A) and a non-cancerous immortalized, mammary gland epithelial cell line (hTERT-HME1) were purchased from LGC Standards GmbH (Wesel, Germany). Non-cancerous fibroblast cells (MRC-5) were also obtained from the ECACC. All cells were cultured in minimal essential medium supplemented with 10% fetal bovine serum, 1% non-essential amino acids, and 1% antibiotic-antimycotic mixture, in humidified air containing 5% CO2 at 37°C. Immortalized hTERT-HME1 cells were maintained in serum-free mammary epithelial cell growth medium (MEGM) supplemented with insulin, human epidermal growth factor (hEGF), hydrocortisone, bovine pituitary extract, and an antibiotic-antimycotic mixture. All the medium and supplements were purchased from Lonza Group Ltd. (Basel, Switzerland).
(§2) The antiproliferative properties of the compounds were assessed by an MTT assay ([Mosmann, 1983]). Cells were seeded onto 96-well microplates at a density of 10,000 cells/well (MDA-MB-361 and C33A) or 5,000 cells/well (all other cell lines). After an overnight incubation, fresh medium containing the test compounds (at a concentration of 10 or 30 μM) was added. After incubation for 72 h at 37°C in humidified air, [3-(4,5-dimethylthiazol-2-yl)-2,5-diphenyltetrazolium bromide] (MTT) solution (5 mg/mL) was added. Purple formazan crystals were formed by the living cells during a 4 h contact period, which were assayed by spectrophotometry after having been dissolved in 100 μL DMSO. Untreated cells served as control, and cisplatin (CIS) (Ebewe Pharma GmbH, Unterach, Austria) was used as a reference compound. […] Two independent measurements were performed with five parallel wells. To present preliminary data concerning tumor selectivity of the potent compounds, the procedure was repeated on MRC-5 fibroblast and hTERT-HME1 immortalized mammary gland epithelial cells under the same experimental conditions.

HeLa = experiment: MTT antiproliferative assay, HeLa; conditions: 72 h; for inhibition at 10 µM / inhibition at 30 µM: Homo sapiens, read-out: Growth inhibition (%) ± SEM
From the text: as §1, §2

C33A = experiment: MTT antiproliferative assay, C33A; conditions: 72 h; for inhibition at 10 µM / inhibition at 30 µM: Homo sapiens, C-33-A, read-out: Growth inhibition (%) ± SEM
From the text: as §1, §2

T47D = experiment: MTT antiproliferative assay, T47D; conditions: 72 h; for inhibition at 10 µM / inhibition at 30 µM: Homo sapiens, read-out: Growth inhibition (%) ± SEM
From the text: as §1, §2

MDA-MB-231 = experiment: MTT antiproliferative assay, MDA-MB-231; conditions: for inhibition at 10 µM / inhibition at 30 µM: Homo sapiens, read-out: Growth inhibition (%) ± SEM; for inhibition at 10 µM: MDA-MB-231, 10 μM
From the text: as §1, §2

A2780 = experiment: MTT antiproliferative assay, A2780; conditions: for inhibition at 10 µM / inhibition at 30 µM: Homo sapiens, read-out: Growth inhibition (%) ± SEM; for inhibition at 10 µM / inhibition at 30 µM / Growth inhibition (%) ± SEM: 72 h
From the text: as §1, §2

SiHa = experiment: MTT antiproliferative assay, SiHa; conditions: 72 h; for inhibition at 10 µM / inhibition at 30 µM: Homo sapiens, read-out: Growth inhibition (%) ± SEM
From the text: as §1, §2

MDA-MB-361 = experiment: MTT antiproliferative assay, MDA-MB-361; conditions: for inhibition at 10 µM / inhibition at 30 µM: Homo sapiens, read-out: Growth inhibition (%) ± SEM; for inhibition at 10 µM / inhibition at 30 µM / Growth inhibition (%) ± SEM: 72 h
From the text: as §1, §2

hTERT-HME1 = experiment: MTT assay, immortalized mammary gland epithelial cells hTERT-HME1; conditions: for Growth inhibition (%) ± SEM: 72 h
From the text: as §1, §2

MRC-5 = experiment: MTT assay, non-cancerous fibroblasts MRC-5; conditions: for Growth inhibition (%) ± SEM: 72 h
From the text: as §1, §2

[1] = read-out: calculated IC50 value

## C[C@]12CC[C@H]3[C@@H](CCC4=CC(=O)CC[C@@H]43)[C@@H]1CC[C@H]2O [Compound 2, 17α-19-nortestosterone]
MCF-7; MCF-7, 10 μM
  inhibition at 10 µM: < 20%
MCF-7; MCF-7, 30 μM
  inhibition at 30 µM: 27.7 ± 3.7%
HeLa; 10 μM
  inhibition at 10 µM: 28.1 ± 4%
HeLa; 30 μM
  inhibition at 30 µM: 37.9 ± 3.4%
C33A; 10 μM
  inhibition at 10 µM: < 20%
C33A; 30 μM
  inhibition at 30 µM: < 20%
T47D; 10 μM
  inhibition at 10 µM: < 20%
T47D; 30 μM
  inhibition at 30 µM: < 20%
MDA-MB-231; 72 h
  inhibition at 10 µM: < 20%
MDA-MB-231; MDA-MB-231, 30 μM, 72 h
  inhibition at 30 µM: < 20%
A2780; A2780, 10 μM
  inhibition at 10 µM: < 20%
A2780; A2780, 30 μM
  inhibition at 30 µM: < 20%
SiHa; 10 μM
  inhibition at 10 µM: < 20%
SiHa; 30 μM
  inhibition at 30 µM: < 20%
MDA-MB-361; MDA-MB-361, 10 μM
  inhibition at 10 µM: < 20%
MDA-MB-361; MDA-MB-361, 30 μM
  inhibition at 30 µM: < 20%

## C[C@]12CC[C@H]3[C@@H](CCC4=CC(=O)CC[C@@H]43)[C@@H]1CC[C@H]2OC(=O)c1cc([N+](=O)[O-])cc([N+](=O)[O-])c1 [Compound 7, 17α-19-nortestosterone-17-yl 3′,5′-dinitrobenzoate]
MCF-7; MCF-7, 10 μM
  inhibition at 10 µM: 25.9 ± 3.1%
MCF-7; MCF-7, 30 μM
  inhibition at 30 µM: 37.7 ± 3.4%
HeLa; 10 μM
  inhibition at 10 µM: 26.6 ± 1.8%
HeLa; 30 μM
  inhibition at 30 µM: 21.5 ± 1.9%
C33A; 10 μM
  inhibition at 10 µM: < 20%
C33A; 30 μM
  inhibition at 30 µM: < 20%
T47D; 10 μM
  inhibition at 10 µM: < 20%
T47D; 30 μM
  inhibition at 30 µM: < 20%
MDA-MB-231; 72 h
  inhibition at 10 µM: < 20%
MDA-MB-231; MDA-MB-231, 30 μM, 72 h
  inhibition at 30 µM: < 20%
A2780; A2780, 10 μM
  inhibition at 10 µM: 49.2 ± 0.9%
A2780; A2780, 30 μM
  inhibition at 30 µM: 58.1 ± 2%
SiHa; 10 μM
  inhibition at 10 µM: < 20%
SiHa; 30 μM
  inhibition at 30 µM: < 20%
MDA-MB-361; MDA-MB-361, 10 μM
  inhibition at 10 µM: < 20%
MDA-MB-361; MDA-MB-361, 30 μM
  inhibition at 30 µM: 22 ± 1.6%

## N.N.[Cl][Pt][Cl] [CIS, cisplatin, reference compound]
MCF-7; MCF-7, 10 μM
  Growth inhibition (%) ± SEM: 66.9 ± 1.8%
MCF-7; MCF-7, 30 μM
  Growth inhibition (%) ± SEM: 96.8 ± 0.4%
HeLa; 10 μM
  Growth inhibition (%) ± SEM: 42.6 ± 2.3%
HeLa; 30 μM
  Growth inhibition (%) ± SEM: 99.9 ± 0.3%
HeLa; [1]
  IC50: 12.4 µM
C33A; 10 μM
  Growth inhibition (%) ± SEM: 83.8 ± 0.8%
C33A; 30 μM
  Growth inhibition (%) ± SEM: 93.9 ± 0.6%
C33A; [1]
  IC50: 1.77 µM
T47D; 10 μM
  Growth inhibition (%) ± SEM: 51.0 ± 2.0%
T47D; 30 μM
  Growth inhibition (%) ± SEM: 55.0 ± 1.5%
T47D; [1]
  IC50: 9.78 µM
MDA-MB-231; MDA-MB-231, 30 μM, 72 h
  Growth inhibition (%) ± SEM: 71.5 ± 1.2%
MDA-MB-231; MDA-MB-231, 72 h, read-out: calculated IC50 value
  IC50: 19.1 µM
A2780; A2780, 10 μM
  Growth inhibition (%) ± SEM: 83.6 ± 1.2%
A2780; A2780, 30 μM
  Growth inhibition (%) ± SEM: 95.0 ± 0.3%
A2780; A2780, 72 h, read-out: calculated IC50 value
  IC50: 1.3 µM
hTERT-HME1; hTERT-HME1, 10 μM
  Growth inhibition (%) ± SEM: 97.7 ± 0.3%
hTERT-HME1; hTERT-HME1, 30 μM
  Growth inhibition (%) ± SEM: 99.1 ± 0.3%
hTERT-HME1; hTERT-HME1, 72 h, read-out: calculated IC50 value
  IC50: 2.45 µM
SiHa; 10 μM
  Growth inhibition (%) ± SEM: 88.6 ± 0.5%
SiHa; 30 μM
  Growth inhibition (%) ± SEM: 90.2 ± 1.8%
SiHa; [1]
  IC50: 7.84 µM
MDA-MB-361; MDA-MB-361, 10 μM
  Growth inhibition (%) ± SEM: 67.5 ± 1.0%
MDA-MB-361; MDA-MB-361, 30 μM
  Growth inhibition (%) ± SEM: 87.8 ± 1.1%
MDA-MB-361; MDA-MB-361, 72 h, read-out: calculated IC50 value
  IC50: 3.74 µM
MRC-5; MRC-5, 10 μM
  Growth inhibition (%) ± SEM: 60.3 ± 3.3%
MRC-5; MRC-5, 30 μM
  Growth inhibition (%) ± SEM: 61.9 ± 1.0%
MRC-5; MRC-5, 72 h, read-out: calculated IC50 value
  IC50: 6.19 µM
